In US5668134A, “Method for preventing or reducing photosensitivity and/or phototoxicity reactions to medications” (priority 1994, dated 1997):
Values joined by “and” are separate entries in the source; they are usually repeats but may differ in a detail not shown here. Equal values may be shown once. Where a name gives a salt, the structure may show the parent alone.

Experiments:
[1] = Pharmacokinetics in the geriatric population; assay type: in vivo, human
Description: This slower elimination most likely reflects the decreased renal function normally observed in the geriatric population.

[2] = system: skin of healthy volunteers; experiment: Example 5: severity of radiation-induced photoreactions (edema or blisters)
Description: The number of skin patches with edema, or local swelling of the skin surface, were also counted. MEDs were measured separately for UVA and UVB radiation, and for UVA radiation alone. The baseline MED was defined in the manner described hereinabove. The 24 hour evaluation was allowed to be performed in the morning of Study Day 1. Severity of reactions causing edema and/or blisters were graded under the following grading system:
Severity was assessed by comparing the numbers of subjects with responses graded as 2 (edema) or 3 (blisters).

Enterobacter cloacae = experiment: Activity in vitro and in clinical infections; assay type: cell-based
[3] = in vivo
[4] = UVA & UVB, a.m., 0 h post-radiation
[5] = UVA & UVB, a.m., 3 h post-radiation
[6] = UVA & UVB, a.m., 6 h post-radiation
[7] = UVA & UVB, a.m., 24 h post-radiation
[8] = UVA & UVB, a.m., 48 h post-radiation
[9] = UVA & UVB, a.m., 72 h post-radiation
[10] = UVA & UVB, p.m., 0 h post-radiation
[11] = UVA & UVB, p.m., 3 h post-radiation
[12] = UVA & UVB, p.m., 6 h post-radiation
[13] = UVA & UVB, p.m., 24 h post-radiation
[14] = UVA & UVB, p.m., 48 h post-radiation
[15] = UVA & UVB, p.m., 72 h post-radiation

In the case of `CCn1cc(C(=O)O)c(=O)c2cc(F)c(N3CCNC(C)C3)c(F)c21` (racemic) [lomefloxacin HCl, monohydrochloride salt of (±)-1-ethyl-6,8-difluoro-1,4-dihydro-7-(3-methyl-1-piperazinyl)-4-oxo-3-quinolinecarboxylic acid], the “increase of AUC” value ([1]; elderly vs younger subjects) is reported as “approximately 33%”, the “reduction of plasma clearance” value ([1]; elderly vs younger subjects) is reported as “approximately 25%” and the half-life ([1]; human, in vivo, 16 elderly volunteers, single 400 mg dose) is reported as 8 h. For the same compound, the Cmax ([1]; human, plasma, 16 elderly volunteers, single 400 mg dose, read-out: peak plasma concentration, mean) was 4200 ng/mL, the “drug absorption in the elderly” value ([1]; single 400 mg dose) was “unaffected in the elderly” and the “NUMBER OF SUBJECTS WITH SCORE >= 2, COUNT” value [2, 4] was 0 subjects. For the same compound, the “SUBJECTS WITH SCORE >= 2, PERCENT” value [2, 4] was 0.00%, the “NUMBER OF SUBJECTS WITH SCORE >= 2, COUNT” value [2, 5] was 0 subjects and the “SUBJECTS WITH SCORE >= 2, PERCENT” value [2, 5] was 0.00%. For the same compound, the “NUMBER OF SUBJECTS WITH SCORE >= 2, COUNT” value [2, 6] was 2 subjects, the “SUBJECTS WITH SCORE >= 2, PERCENT” value [2, 6] was 15.38% and the “NUMBER OF SUBJECTS WITH SCORE >= 2, COUNT” value [2, 7] was 0 subjects. The “SUBJECTS WITH SCORE >= 2, PERCENT” value [2, 7] was 0.00%, the “NUMBER OF SUBJECTS WITH SCORE >= 2, COUNT” value [2, 8] was 0 subjects and the “SUBJECTS WITH SCORE >= 2, PERCENT” value [2, 8] was 0.00%. For the same compound, the “NUMBER OF SUBJECTS WITH SCORE >= 2, COUNT” value [2, 9] was 0 subjects, the “SUBJECTS WITH SCORE >= 2, PERCENT” value [2, 9] was 0.00% and the “NUMBER OF SUBJECTS WITH SCORE >= 2, COUNT” value [2, 10] was 0 subjects. The “SUBJECTS WITH SCORE >= 2, PERCENT” value [2, 10] was 0.00%, the “NUMBER OF SUBJECTS WITH SCORE >= 2, COUNT” value [2, 11] was 0 subjects and the “SUBJECTS WITH SCORE >= 2, PERCENT” value [2, 11] was 0.00%. The “NUMBER OF SUBJECTS WITH SCORE >= 2, COUNT” value [2, 12] was 0 subjects, the “SUBJECTS WITH SCORE >= 2, PERCENT” value [2, 12] was 0.00% and the “NUMBER OF SUBJECTS WITH SCORE >= 2, COUNT” value [2, 13] was 1 subjects. The “SUBJECTS WITH SCORE >= 2, PERCENT” value [2, 13] was 7.69%, the “NUMBER OF SUBJECTS WITH SCORE >= 2, COUNT” value [2, 14] was 0 subjects and the “SUBJECTS WITH SCORE >= 2, PERCENT” value [2, 14] was 0.00%. The “NUMBER OF SUBJECTS WITH SCORE >= 2, COUNT” value [2, 15] was 0 subjects, the “SUBJECTS WITH SCORE >= 2, PERCENT” value [2, 15] was 0.00% and the “NUMBER OF SUBJECTS WITH SCORE >= 2, COUNT” value ([2]; UVA, a.m., 0 h post-radiation) was 1 subjects. The “SUBJECTS WITH SCORE >= 2, PERCENT” value ([2]; UVA, a.m., 0 h post-radiation) was 7.69%, the “NUMBER OF SUBJECTS WITH SCORE >= 2, COUNT” value ([2]; UVA, a.m., 3 h post-radiation) was 6 subjects and the “SUBJECTS WITH SCORE >= 2, PERCENT” value ([2]; UVA, a.m., 3 h post-radiation) was 46.15%. For the same compound, the “NUMBER OF SUBJECTS WITH SCORE >= 2, COUNT” value ([2]; UVA, a.m., 6 h post-radiation) was 9 subjects, the “SUBJECTS WITH SCORE >= 2, PERCENT” value ([2]; UVA, a.m., 6 h post-radiation) was 69.23% and 69% and the “NUMBER OF SUBJECTS WITH SCORE >= 2, COUNT” value ([2]; UVA, a.m., 24 h post-radiation) was 5 subjects. The “SUBJECTS WITH SCORE >= 2, PERCENT” value ([2]; UVA, a.m., 24 h post-radiation) was 38.46%, the “NUMBER OF SUBJECTS WITH SCORE >= 2, COUNT” value ([2]; UVA, a.m., 48 h post-radiation) was 2 subjects and the “SUBJECTS WITH SCORE >= 2, PERCENT” value ([2]; UVA, a.m., 48 h post-radiation) was 15.38%. For the same compound, the “NUMBER OF SUBJECTS WITH SCORE >= 2, COUNT” value ([2]; UVA, a.m., 72 h post-radiation) was 0 subjects, the “SUBJECTS WITH SCORE >= 2, PERCENT” value ([2]; UVA, a.m., 72 h post-radiation) was 0.00% and the “NUMBER OF SUBJECTS WITH SCORE >= 2, COUNT” value ([2]; UVA, p.m., 0 h post-radiation) was 0 subjects. The “SUBJECTS WITH SCORE >= 2, PERCENT” value ([2]; UVA, p.m., 0 h post-radiation) was 0.00%, the “NUMBER OF SUBJECTS WITH SCORE >= 2, COUNT” value ([2]; UVA, p.m., 3 h post-radiation) was 0 subjects and the “SUBJECTS WITH SCORE >= 2, PERCENT” value ([2]; UVA, p.m., 3 h post-radiation) was 0.00%. For the same compound, the “NUMBER OF SUBJECTS WITH SCORE >= 2, COUNT” value ([2]; UVA, p.m., 6 h post-radiation) was 0 subjects, the “SUBJECTS WITH SCORE >= 2, PERCENT” value ([2]; UVA, p.m., 6 h post-radiation) was 0.00% and the “NUMBER OF SUBJECTS WITH SCORE >= 2, COUNT” value ([2]; UVA, p.m., 24 h post-radiation) was 0 subjects. The “SUBJECTS WITH SCORE >= 2, PERCENT” value ([2]; UVA, p.m., 24 h post-radiation) was 0.00%, the “NUMBER OF SUBJECTS WITH SCORE >= 2, COUNT” value ([2]; UVA, p.m., 48 h post-radiation) was 0 subjects and the “SUBJECTS WITH SCORE >= 2, PERCENT” value ([2]; UVA, p.m., 48 h post-radiation) was 0.00%. For the same compound, the “NUMBER OF SUBJECTS WITH SCORE >= 2, COUNT” value ([2]; UVA, p.m., 72 h post-radiation) was 0 subjects, the “SUBJECTS WITH SCORE >= 2, PERCENT” value ([2]; UVA, p.m., 72 h post-radiation) was 0.00% and the “activity against most strains” value (Enterobacter cloacae) was “active against most strains”. The “time of peak plasma concentration following dosing” value [3] was “approximately two”.
